IC50 data for 24 compounds are collected here from patent US20220073525A1, “COMPOSITIONS FOR INHIBITING UBIQUITIN SPECIFIC PROTEASE 1” (FORMA Therapeutics, Inc., priority 2019, published 2022).

The target of this assay is USP1 (Homo sapiens, UniProt O94782). Description: Biochemical Assay for USP1 Inhibition (Ub-Rho 110 fluorescence). As to conditions: 30 min preincubation, Enzyme 0.025 nM, Substrate Ub-Rho 110 25 nM. How it is done:
The assay was performed in a final volume of 6 μL in assay buffer containing 20 mM Tris-HCl pH 8.0, (1 M Tris-HCl, pH 8.0 solution; Corning 46-031-CM), 1 mM GSH (L-glutathione reduced, Sigma-Aldrich, G4251-100G), 0.03% BGG (0.22 μM filtered, Sigma, G7516-25G), and 0.01% Triton X-100 (Sigma, T9284-10L). Nanoliter quantities of 10-point, 3-fold serial dilution in DMSO were pre-dispensed into 1536 assay plates (Corning, #3724BC) for a final test concentration of 25 μM to 1.3 nM, top to lowest dose, respectively. Concentration and incubation times were optimized for the maximal signal-to-background while maintaining initial velocity conditions at a fixed substrate concentration (<<Km). 3 μL of 2× Enzyme was added to assay plates (pre-stamped with compound), preincubated for 30 min, and then treated with 3 μL of 2× Substrate (Ub-Rho 110, UbiQ-126). Final concentrations of Enzyme and Substrate are 0.025 nM and 25 nM, respectively. Plates were read using a kinetic protocol continuously for 11 min on the Envision (Perkin Elmer) or PheraSTAR (BMG), excitation at 485 nm and emission at 535 nm or excitation at 520 nm and emission at 590 nm. For all assay formats, data were reported as percent inhibition compared with control wells based on the following equation: % inh=100*([…]), where FLU=measured Fluorescence, AveLow=average Fluorescence of no enzyme control (n=32), and AveHigh=average Fluorescence of DMSO control (n=32). IC50 values were determined by curve fitting of the standard 4 parameter logistic fitting algorithm included in the Activity Base software package: TDBS XE Designer Model205. Data is fitted using the Levenburg Marquardt algorithm.
In Table 5, absolute stereochemistry has not been determined for some Compounds. Accordingly, assignment ofany Compounds as the “R” or “S” stereoisomer is arbitrary, unless otherwise noted. In some cases, Compounds are labeled with “1st eluting isomer”, “2nd eluting isomer”, etc. based on the purification method used to separate the stereoisomers.

[1] abbreviates: Table 6, additional compounds, read-out: IC50.

Read-outs that look alike come from different tables or passages of the source. Where only a bound is given, the exact number is not on record here.

For orientation: IC50 means the concentration at which inhibition is half-maximal.

USP1, sequence (O94782 whole entry): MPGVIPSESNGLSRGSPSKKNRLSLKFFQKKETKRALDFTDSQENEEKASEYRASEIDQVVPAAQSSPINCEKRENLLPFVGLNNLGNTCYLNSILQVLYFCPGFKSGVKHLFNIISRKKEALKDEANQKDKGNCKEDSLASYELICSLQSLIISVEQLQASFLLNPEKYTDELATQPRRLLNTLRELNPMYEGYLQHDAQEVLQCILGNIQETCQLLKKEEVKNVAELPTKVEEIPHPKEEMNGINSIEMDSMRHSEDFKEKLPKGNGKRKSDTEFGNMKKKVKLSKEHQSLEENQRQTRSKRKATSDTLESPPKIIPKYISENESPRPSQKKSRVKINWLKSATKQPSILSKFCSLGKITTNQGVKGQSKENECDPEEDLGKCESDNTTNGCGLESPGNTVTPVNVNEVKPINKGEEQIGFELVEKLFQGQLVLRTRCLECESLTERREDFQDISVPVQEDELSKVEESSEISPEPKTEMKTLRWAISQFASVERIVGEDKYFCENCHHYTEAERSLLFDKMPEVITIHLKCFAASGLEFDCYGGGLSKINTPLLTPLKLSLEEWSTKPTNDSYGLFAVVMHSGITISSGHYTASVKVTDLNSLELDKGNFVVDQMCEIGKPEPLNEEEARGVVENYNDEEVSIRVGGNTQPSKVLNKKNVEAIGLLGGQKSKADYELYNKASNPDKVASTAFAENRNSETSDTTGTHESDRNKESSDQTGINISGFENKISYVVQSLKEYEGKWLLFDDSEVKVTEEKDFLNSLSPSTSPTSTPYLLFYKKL
USP1, sequence (Q8TAF3 whole entry partner): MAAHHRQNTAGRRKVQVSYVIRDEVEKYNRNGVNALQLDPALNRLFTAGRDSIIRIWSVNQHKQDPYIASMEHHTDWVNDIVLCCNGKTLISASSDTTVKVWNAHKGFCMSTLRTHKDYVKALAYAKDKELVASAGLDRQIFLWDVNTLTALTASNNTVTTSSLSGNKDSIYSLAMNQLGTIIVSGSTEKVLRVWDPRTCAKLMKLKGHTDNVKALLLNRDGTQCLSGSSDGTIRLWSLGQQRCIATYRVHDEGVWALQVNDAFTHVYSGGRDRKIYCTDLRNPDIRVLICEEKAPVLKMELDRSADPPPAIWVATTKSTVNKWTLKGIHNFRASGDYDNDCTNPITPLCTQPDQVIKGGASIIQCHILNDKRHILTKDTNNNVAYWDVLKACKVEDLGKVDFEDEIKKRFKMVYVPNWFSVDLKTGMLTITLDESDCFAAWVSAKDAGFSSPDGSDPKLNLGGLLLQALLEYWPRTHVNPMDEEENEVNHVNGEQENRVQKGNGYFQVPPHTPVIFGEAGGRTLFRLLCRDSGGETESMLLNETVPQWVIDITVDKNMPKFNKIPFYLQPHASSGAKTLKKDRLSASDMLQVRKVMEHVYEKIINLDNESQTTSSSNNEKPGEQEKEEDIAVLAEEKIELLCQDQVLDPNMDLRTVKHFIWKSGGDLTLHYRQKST

For the compound `Cc1nc(-c2cccnc2C(C)C)c2n1CCN(c1ccc(-c3nc(C(F)(F)F)cn3C3CC3)cc1)C2` [Compound 76, 3-(7-{4-[1-cyclopropyl-4-(trifluoromethyl)-1H-imidazol-2-yl]phenyl}-3-methyl-5H,6H,7H,8H-imidazo[1,5-a]pyrazin-1-yl)-2-(propan-2-yl)pyridine], the half-inhibitory concentration (IC50) (Table 5, read-out: IC50 (μm)) was at most 1000 nM.

Turning to `Cc1nc(-c2cccnc2C(C)C)c2n1CCN(c1ccc(-c3nc(C(F)(F)F)cn3C)cn1)C2` [Compound 13, 2-{3-methyl-1-[2-(propan-2-yl)pyridin-3-yl]-5H,6H,7H,8H-imidazo[1,5-a]pyrazin-7-yl}-5-[1-methyl-4-(trifluoromethyl)-1H-imidazol-2-yl]pyridine], the IC50 (Table 5, read-out: IC50 (μm)) was at most 1000 nM.

Regarding `Cc1nc(-c2cccnc2C(C)C)c2n1CCN(c1ccc(-n3ccnc3)cc1)C2` [Compound 47, 3-{7-[4-(1H-imidazol-1-yl)phenyl]-3-methyl-5H,6H,7H,8H-imidazo[1,5-a]pyrazin-1-yl}-2-(propan-2-yl)pyridine], the half-maximal inhibitory concentration (IC50) (Table 5, read-out: IC50 (μm)) was over 25000 nM.

In the case of `CC(C)c1ncccc1-c1nc(C(F)(F)F)n2c1CN(c1ccc(-c3nc(C(F)(F)F)cn3C)cc1)CC2` [Compound 2, 3-(7-{4-[1-methyl-4-(trifluoromethyl)-1H-imidazol-2-yl]phenyl}-3-(trifluoromethyl)-5H,6H,7H,8H-imidazo[1,5-a]pyrazin-1-yl)-2-(propan-2-yl)pyridine], the IC50 (Table 5, read-out: IC50 (μm)) is at most 1000 nM.

Take `Cc1nc(-c2cccnc2C(C)C)c2n1CCN(c1ccc(-c3nc(C(F)(F)F)cn3C3COC3)cc1)C2` [Compound 25, 3-(3-methyl-7-{4-[1-(oxetan-3-yl)-4-(trifluoromethyl)-1H-imidazol-2-yl]phenyl}-5H,6H,7H,8H-imidazo[1,5-a]pyrazin-1-yl)-2-(propan-2-yl)pyridine]: where the note is “Table 5, read-out: IC50 (μm)”, the half-maximal inhibitory concentration (IC50) is at most 1000 nM.

On to `Cc1cnc(-c2ccc(N3CCn4c(C)nc(-c5cccnc5C(C)C)c4C3)cc2)o1` [Compound 65, 3-{3-methyl-7-[4-(5-methyl-1,3-oxazol-2-yl)phenyl]-5H,6H,7H,8H-imidazo[1,5-a]pyrazin-1-yl}-2-(propan-2-yl)pyridine], for which the IC50 (Table 5, read-out: IC50 (μm)) was at most 1000 nM.

As for `Cc1nc(-c2cccnc2C(C)C)c2n1CCN(c1ccc(-c3nc(C(F)(F)F)cn3C)cc1)C2C` (stereo not drawn) [Compound 85, 3-[3,8-dimethyl-7-{4-[1-methyl-4-(trifluoromethyl)-1H-imidazol-2-yl]phenyl}-5H,6H,7H,8H-imidazo[1,5-a]pyrazin-1-yl]-2-(propan-2-yl)pyridine], the concentration for half-maximal inhibition (IC50) (Table 5, read-out: IC50 (μm)) is at most 1000 nM.

In the case of `COCCn1cc(C(F)(F)F)nc1-c1ccc(N2CCn3c(C)nc(-c4cccnc4C(C)C)c3C2)cc1` [Compound 63, 3-(7-{4-[1-(2-methoxyethyl)-4-(trifluoromethyl)-1H-imidazol-2-yl]phenyl}-3-methyl-5H,6H,7H,8H-imidazo[1,5-a]pyrazin-1-yl)-2-(propan-2-yl)pyridine], the 50% inhibitory concentration (IC50) (Table 5, read-out: IC50 (μm)) is at most 1000 nM.

As for `Cc1nc(-c2cccnc2C(C)C)c2n1CCN(c1cnccn1)C2` [Compound 11, 2-{3-methyl-1-[2-(propan-2-yl)pyridin-3-yl]-5H,6H,7H,8H-imidazo[1,5-a]pyrazin-7-yl}pyrazine], the IC50 (Table 5, read-out: IC50 (μm)) is over 25000 nM.

In the case of `Cc1nc(-c2ccccc2C(C)C)n2cc(N3CCC(c4nc(C(F)(F)F)cn4C)CC3)ccc12` [Compound C-4, 3-(2-isopropylphenyl)-1-methyl-6-(4-(1-methyl-4-(trifluoromethyl)-1H-imidazol-2-yl)piperidin-1-yl)imidazo[1,5-a]pyridine], the IC50 under setting [1] was over 25000 nM.

As to `Cc1nc(-c2cccnc2OC(F)F)c2n1CCN(c1ccc(-c3nc(C(F)(F)F)cn3C)cc1)C2C` (single isomer, unassigned) [Compound 52-1, 2-(difluoromethoxy)-3-[-3,8-dimethyl-7-{4-[1-methyl-4-(trifluoromethyl)-1H-imidazol-2-yl]phenyl}-5H,6H,7H,8H-imidazo[1,5-a]pyrazin-1-yl]pyridine], the IC50 (Table 5, read-out: IC50 (μm)) is at most 1000 nM.

For the compound `Cc1nc(-c2cccnc2OC(C)C)c2n1CCN(c1ccc(-c3nc(C(F)(F)F)cn3C)cc1)C2` [Compound 20, 3-(3-methyl-7-{4-[1-methyl-4-(trifluoromethyl)-1H-imidazol-2-yl]phenyl}-5H,6H,7H,8H-imidazo[1,5-a]pyrazin-1-yl)-2-(propan-2-yloxy)pyridine], the half-inhibitory concentration (IC50) (Table 5, read-out: IC50 (μm)) was at most 1000 nM.

In the case of `CC(C)c1ncccc1-c1nc(C2CC2)n2c1CN(c1ccc(-c3nc(C(F)(F)F)cn3C)cc1)CC2` [Compound 24, 3-(3-cyclopropyl-7-{4-[1-methyl-4-(trifluoromethyl)-1H-imidazol-2-yl]phenyl}-5H,6H,7H,8H-imidazo[1,5-a]pyrazin-1-yl)-2-(propan-2-yl)pyridine], where the note is “Table 5, read-out: IC50 (μm)”, the IC50 was at most 1000 nM.

Turning to `Cc1nc(-c2cccnc2C(C)C)c2n1CCN(c1ccc(-n3ccnn3)cc1)C2` [Compound 33, 3-{3-methyl-7-[4-(1H-1,2,3-triazol-1-yl)phenyl]-5H,6H,7H,8H-imidazo[1,5-a]pyrazin-1-yl}-2-(propan-2-yl)pyridine], where the note is “Table 5, read-out: IC50 (μm)”, the IC50 was in the range of 10000 to 25000 nM.

For the compound `Cc1nc(-c2cccnc2C(C)C)c2n1CCN(c1ccc(NC(=O)C3CC3)cc1)C2` [Compound 59, N-(4-{3-methyl-1-[2-(propan-2-yl)pyridin-3-yl]-5H,6H,7H,8H-imidazo[1,5-a]pyrazin-7-yl}phenyl)cyclopropanecarboxamide], the concentration for half-maximal inhibition (IC50) (Table 5, read-out: IC50 (μm)) lay in the range of 1000 to 10000 nM.

As to `Cc1nc(-c2cccnc2C(C)C)c2n1CC(C)N(c1ccc(-c3nc(C(F)(F)F)cn3C)cc1)C2` (single isomer, unassigned) [Compound 8-1, 3-[3,6-dimethyl-7-{4-[1-methyl-4-(trifluoromethyl)-1H-imidazol-2-yl]phenyl}-5H,6H,7H,8H-imidazo[1,5-a]pyrazin-1-yl]-2-(propan-2-yl)pyridine], the IC50 (Table 5, read-out: IC50 (μm)) is at most 1000 nM.

Regarding `Cc1nc(-c2cccnc2C(C)C)c2n1C(C)CN(c1ccc(-c3nc(C(F)(F)F)cn3C)cc1)C2` (single isomer, unassigned) [Compound 72-1, 3-[-3,5-dimethyl-7-{4-[1-methyl-4-(trifluoromethyl)-1H-imidazol-2-yl]phenyl}-5H,6H,7H,8H-imidazo[1,5-a]pyrazin-1-yl]-2-(propan-2-yl)pyridine], the IC50 (Table 5, read-out: IC50 (μm)) was at most 1000 nM.

As to `CC(C)c1ncccc1-c1ncn2c1CN(c1ccc(-c3nc(C(F)(F)F)cn3C)cc1)CC2` [Compound 4, 3-(7-{4-[1-methyl-4-(trifluoromethyl)-1H-imidazol-2-yl]phenyl}-5H,6H,7H,8H-imidazo[1,5-a]pyrazin-1-yl)-2-(propan-2-yl)pyridine], the IC50 (Table 5, read-out: IC50 (μm)) was at most 1000 nM.

As to `Cc1cc(Cl)n(-c2ccc(N3CCn4c(C)nc(-c5cccnc5OC(F)F)c4C3)cc2)n1` [Compound 82, 3-{7-[4-(5-chloro-3-methyl-1H-pyrazol-1-yl)phenyl]-3-methyl-5H,6H,7H,8H-imidazo[1,5-a]pyrazin-1-yl}-2-(difluoromethoxy)pyridine], under “Table 5, read-out: IC50 (μm)”, the concentration for half-maximal inhibition (IC50) was at most 1000 nM.

Turning to `Cc1nnnn1-c1ccc(N2CCn3c(C)nc(-c4cccnc4C(C)C)c3C2)cc1` [Compound 39, 3-{3-methyl-7-[4-(5-methyl-1H-1,2,3,4-tetrazol-1-yl)phenyl]-5H,6H,7H,8H-imidazo[1,5-a]pyrazin-1-yl}-2-(propan-2-yl)pyridine], the IC50 (Table 5, read-out: IC50 (μm)) was over 25000 nM.

Turning to `Cc1nc(-c2cccnc2C(C)C)c2n1CCN(C(=O)c1ccc(-c3ccnn3C(C)C)nc1)C2` [Compound C-6, 3-(3-methyl-7-{6-[1-(propan-2-yl)-1H-pyrazol-5-yl]pyridine-3-carbonyl}-5H,6H,7H,8H-imidazo[1,5-a]pyrazin-1-yl)-2-(propan-2-yl)pyridine], the concentration for half-maximal inhibition (IC50) under setting [1] was over 25000 nM.

Consider `Cc1nc(-c2cccnc2C(C)C)c2n1CCN(c1ccc(-c3nc(C(F)(F)F)cn3C)cn1)C2C` (stereo not drawn) [Compound 86, 2-[3,8-dimethyl-1-[2-(propan-2-yl)pyridin-3-yl]-5H,6H,7H,8H-imidazo[1,5-a]pyrazin-7-yl]-5-[1-methyl-4-(trifluoromethyl)-1H-imidazol-2-yl]pyridine], for which the half-inhibitory concentration (IC50) (Table 5, read-out: IC50 (μm)) is at most 1000 nM.

On to `Cc1cn(C)c(-c2ccc(N3CCn4c(C)nc(-c5cccnc5C(C)C)c4C3)cc2)n1` [Compound 77, 3-{7-[4-(1,4-dimethyl-1H-imidazol-2-yl)phenyl]-3-methyl-5H,6H,7H,8H-imidazo[1,5-a]pyrazin-1-yl}-2-(propan-2-yl)pyridine], for which the IC50 (Table 5, read-out: IC50 (μm)) is at most 1000 nM.

With `Cc1nc(-c2cccnc2C(C)C)c2n1CCN(c1cnc(-c3nc(C(F)(F)F)cn3C)cn1)C2` [Compound 79, 2-{3-methyl-1-[2-(propan-2-yl)pyridin-3-yl]-5H,6H,7H,8H-imidazo[1,5-a]pyrazin-7-yl}-5-[1-methyl-4-(trifluoromethyl)-1H-imidazol-2-yl]pyrazine], the 50% inhibitory concentration (IC50) (Table 5, read-out: IC50 (μm)) was at most 1000 nM.
